Tests used:
SulE [1] = target: T1, SulE (Hansschlegelia zhihuaiae, UniProt G9I933, S245A/H369A); assay: X-ray crystal structure (co-crystal); format: binding; conditions: 5 mM substrate, 4 °C, pH 7.0; active site, catalytically dead mutant
T1 construct: pET-29a(+), E. coli BL21(DE3), C-terminal His6 tag; full-length precursor 398 aa, predicted signal peptide cleavage Ala37/Glu38; homodimer, lid loop of one subunit covers active site of the other; residues 12-360 (mature count) seen in crystal

SulE [2] = target: T2, SulE (Hansschlegelia zhihuaiae, UniProt G9I933); assay: X-ray crystal structure (co-crystal with CE, hydrolysed in crystallisation); format: binding; conditions: 5 mM CE, 4 °C, pH 5.5; active site
T2 construct: pET-29a(+), E. coli BL21(DE3), C-terminal His6 tag; full-length precursor 398 aa, predicted signal peptide cleavage Ala37/Glu38; homodimer, lid loop of one subunit covers active site of the other; residues 12-360 (mature count) seen in crystal
T2 sequence (G9I933 entry or part of it): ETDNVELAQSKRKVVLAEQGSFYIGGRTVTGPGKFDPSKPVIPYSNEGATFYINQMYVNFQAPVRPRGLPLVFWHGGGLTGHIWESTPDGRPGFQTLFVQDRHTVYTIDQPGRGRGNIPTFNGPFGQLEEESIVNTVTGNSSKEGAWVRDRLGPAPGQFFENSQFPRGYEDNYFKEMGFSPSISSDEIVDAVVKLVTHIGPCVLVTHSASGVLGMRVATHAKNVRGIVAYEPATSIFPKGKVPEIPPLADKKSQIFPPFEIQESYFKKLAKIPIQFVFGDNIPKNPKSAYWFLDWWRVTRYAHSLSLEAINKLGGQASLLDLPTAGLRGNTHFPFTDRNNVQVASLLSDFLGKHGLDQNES

SulE [3] = target: T2, SulE; assay: SPR (Biacore T200, protein amine-coupled to CM7 chip), steady-state affinity; format: binding
SulE [4] = target: T3, SulE (Hansschlegelia zhihuaiae, UniProt G9I933, P80R); assay: as above; format: binding
T3 construct: pET-29a(+), E. coli BL21(DE3), C-terminal His6 tag; full-length precursor 398 aa, predicted signal peptide cleavage Ala37/Glu38; homodimer, lid loop of one subunit covers active site of the other; residues 12-360 (mature count) seen in crystal
T3 sequence (G9I933 entry or part of it P80R): as the sequence (G9I933 entry or part of it) above, with P43R counted along it

SulE [5] = target: T4, SulE (Hansschlegelia zhihuaiae, UniProt G9I933, P80R/S245A/H369A); assay: X-ray crystal structure (co-crystal); format: binding; conditions: 5 mM substrate, 4 °C, pH 7.0; active site, catalytically dead mutant
T4 construct: pET-29a(+), E. coli BL21(DE3), C-terminal His6 tag; full-length precursor 398 aa, predicted signal peptide cleavage Ala37/Glu38; homodimer, lid loop of one subunit covers active site of the other; residues 12-360 (mature count) seen in crystal
T4 sequence (G9I933 entry or part of it P80R/S245A/H369A): as the sequence (G9I933 entry or part of it) above, with P43R, S208A, H332A counted along it

[6] = target: SulE (wild-type esterase from Hansschlegelia zhihuaiae S113) (Hansschlegelia zhihuaiae S113); assay: crystal structure; X-ray crystal structures of purified SulE and mutants; apo-SulE at 1.46 Å, space group P21, two monomers in the asymmetric unit; sitting-drop vapor diffusion at 4 °C; apo-SulE in 0.1 M citric acid-trisodium citrate pH 5.5, 20% PEG 4000; cocrystals and P44R mutants in 0.1 M ammonium tartrate dibasic pH 7.0, 12-15% PEG 3350, with 5 mM substrate

T1 sequence (G9I933 entry or part of it S245A/H369A): as the sequence (G9I933 entry or part of it) above, with S208A, H332A counted along it

Compound | X-ray crystal structure (co-crystal) (SulE [1]) | Kd (SulE [3]) | Kd (SulE [4]) | other results
CCOc1nc(NC)nc(NC(=O)NS(=O)(=O)c2ccccc2C(=O)OC)n1 [EM, ethametsulfuron-methyl] | mutant S209A/H333A in complex with MM, SM, TM, TrM, EM, BM, and CE |  |  | 
COc1cc(Cl)nc(NC(=O)NS(=O)(=O)c2ccccc2C(=O)O)n1 [CA, chlorimuron acid] |  |  |  | X-ray crystal structure (co-crystal with CE, hydrolysed in crystallisation) (SulE [2]): crystal structures of wild-type SulE in complex with CA
COC(=O)c1sccc1S(=O)(=O)NC(=O)Nc1nc(C)nc(OC)n1 [TM, thifensulfuron-methyl] |  | 8.85 µM | 7.25 µM | 
COC(=O)c1ccccc1S(=O)(=O)NC(=O)N(C)c1nc(C)nc(OC)n1 [TrM, tribenuron-methyl] | mutant S209A/H333A in complex with MM, SM, TM, TrM, EM, BM, and CE |  |  | 
CCOC(=O)c1ccccc1S(=O)(=O)NC(=O)Nc1nc(Cl)cc(OC)n1 [CE, chlorimuron-ethyl] |  | 5.29 µM | 1.36 µM | 
COC(=O)c1ccccc1CS(=O)(=O)NC(=O)Nc1nc(OC)cc(OC)n1 [BM, bensulfuron-methyl] |  | 6.34 µM | 5.75 µM | 
COC(=O)c1ccccc1S(=O)(=O)NC(=O)Nc1nc(C)nc(OC)n1 [MM, metsulfuron-methyl] | mutant S209A/H333A in complex with MM, SM, TM, TrM, EM, BM, and CE | 5.58 µM | 2.89 µM | X-ray crystal structure (co-crystal) (SulE [5]): the triple mutant P44R/S209A/H333A in complex with MM, CE, and TM
SulE (wild-type esterase from Hansschlegelia zhihuaiae S113) (enzyme) |  |  |  | stoichiometry N [6]: 2

— article PMC10356948, “Crystal structures of herbicide-detoxifying esterase reveal a lid loop affecting substrate binding and activity” (Nature Communications, 2023)
